The record followed here is patent US10981911B2, “Imidazopyrrolopyridine as inhibitors of the JAK family of kinases” (Janssen Pharmaceutica NV, priority 2016, dated 2021).

pIC50: −log10 of the molar value.

A word on the pIC50: it is the negative decadic logarithm of the IC50, by convention in mol/L.

Common to all, as to assay type: biochemical
The target of experiment [1] is JAK3-JH1JH2 (Homo sapiens (Human), UniProt P52333). In words: Enzymatic inhibition assay (RapidFire HTMS), JAK3. As to conditions: 150 μM ATP, 40 μM substrate. The method in brief:
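JAK3 JH1JH2 reaction incubated 45 min at 25 °C, then quenched with 0.5% TFA containing 0.15 μM internal standard peptide. Phosphopeptide product measured by RapidFire C4 SPE–ESI MS (positive mode); inhibition from product decrease versus uninhibited enzyme, 11-point 1:3 or 1:4 dilutions in duplicate.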

Experiment [2] addresses JAK2-JH1JH2 (Homo sapiens (Human), UniProt O60674). In words: Enzymatic inhibition assay (RapidFire HTMS), JAK2. Conditions: 30 μM ATP, 40 μM substrate. The method in brief:
(§1)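 Quenched with 0.5% TFA plus internal-standard peptide; phosphorylated product quantified by RapidFire C4 SPE–ESI-MS, 11-point 1:3 or 1:4 dilutions in duplicate.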

In experiment [3] the target is JAK1-JH1JH2 (Homo sapiens (Human), UniProt P23458). In words: Enzymatic inhibition assay (RapidFire HTMS), JAK1. As to conditions: 12.5 μM ATP, 200 μM substrate; read-out: JAK1-JH2JH1 IC50. The method in brief:
as §1

The target of experiment [4] is Tyk2-JH1JH2 (Homo sapiens (Human), UniProt P29597, C1142A/C936A). In words: Enzymatic inhibition assay (RapidFire HTMS), Tyk2. Conditions: 50 μM ATP, 200 μM substrate. The method in brief:
as §1

Chain of JAK3-JH1JH2 (P52333 512-1124): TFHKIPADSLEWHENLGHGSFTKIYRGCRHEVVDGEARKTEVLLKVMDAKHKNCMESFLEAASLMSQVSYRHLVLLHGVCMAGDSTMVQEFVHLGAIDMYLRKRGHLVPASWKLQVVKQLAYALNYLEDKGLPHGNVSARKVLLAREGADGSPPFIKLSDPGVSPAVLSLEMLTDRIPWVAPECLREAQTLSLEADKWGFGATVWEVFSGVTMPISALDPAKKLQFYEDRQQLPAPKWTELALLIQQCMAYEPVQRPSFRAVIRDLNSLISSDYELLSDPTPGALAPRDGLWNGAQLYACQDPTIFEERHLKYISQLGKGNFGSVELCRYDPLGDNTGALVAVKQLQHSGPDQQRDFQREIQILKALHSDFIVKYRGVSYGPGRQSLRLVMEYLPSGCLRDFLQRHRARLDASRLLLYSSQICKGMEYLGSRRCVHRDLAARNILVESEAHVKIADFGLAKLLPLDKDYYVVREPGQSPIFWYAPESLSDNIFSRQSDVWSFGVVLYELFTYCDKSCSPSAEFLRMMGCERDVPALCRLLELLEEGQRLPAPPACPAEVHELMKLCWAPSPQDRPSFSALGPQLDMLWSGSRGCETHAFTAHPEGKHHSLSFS
Chain of Tyk2-JH1JH2 (P29597 580-1182 C936A/C1142A): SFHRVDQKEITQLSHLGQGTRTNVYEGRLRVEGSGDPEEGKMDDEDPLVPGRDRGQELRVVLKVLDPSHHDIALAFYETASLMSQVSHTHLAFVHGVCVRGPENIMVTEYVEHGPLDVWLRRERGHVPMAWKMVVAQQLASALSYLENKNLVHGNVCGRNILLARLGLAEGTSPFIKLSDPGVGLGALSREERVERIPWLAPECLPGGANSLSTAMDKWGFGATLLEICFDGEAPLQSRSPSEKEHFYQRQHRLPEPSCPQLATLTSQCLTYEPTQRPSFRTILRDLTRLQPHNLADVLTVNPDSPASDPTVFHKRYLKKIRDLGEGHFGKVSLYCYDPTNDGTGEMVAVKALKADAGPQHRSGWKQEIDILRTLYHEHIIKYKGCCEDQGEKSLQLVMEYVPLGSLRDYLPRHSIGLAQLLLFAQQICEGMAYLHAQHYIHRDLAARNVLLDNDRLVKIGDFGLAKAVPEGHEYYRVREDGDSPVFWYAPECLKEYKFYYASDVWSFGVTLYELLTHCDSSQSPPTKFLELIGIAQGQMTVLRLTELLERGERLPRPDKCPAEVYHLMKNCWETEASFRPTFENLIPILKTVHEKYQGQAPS
Chain of JAK2-JH1JH2 (O60674 532-1132): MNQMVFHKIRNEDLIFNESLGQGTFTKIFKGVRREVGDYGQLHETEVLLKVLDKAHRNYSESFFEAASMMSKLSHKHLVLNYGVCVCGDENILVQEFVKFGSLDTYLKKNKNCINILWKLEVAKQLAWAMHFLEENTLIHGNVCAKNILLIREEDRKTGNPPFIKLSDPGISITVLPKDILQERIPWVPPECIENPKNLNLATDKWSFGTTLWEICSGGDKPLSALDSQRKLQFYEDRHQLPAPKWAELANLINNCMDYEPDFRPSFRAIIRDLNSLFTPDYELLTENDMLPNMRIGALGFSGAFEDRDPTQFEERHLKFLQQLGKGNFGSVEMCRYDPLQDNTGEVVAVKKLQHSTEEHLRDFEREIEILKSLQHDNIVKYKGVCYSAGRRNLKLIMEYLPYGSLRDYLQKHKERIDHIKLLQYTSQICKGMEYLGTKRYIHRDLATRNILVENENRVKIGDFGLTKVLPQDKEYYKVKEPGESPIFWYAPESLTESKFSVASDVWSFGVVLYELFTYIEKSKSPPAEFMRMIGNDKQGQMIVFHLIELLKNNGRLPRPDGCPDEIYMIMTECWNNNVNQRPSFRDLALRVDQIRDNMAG
Chain of JAK1-JH1JH2 (P23458 574-1154): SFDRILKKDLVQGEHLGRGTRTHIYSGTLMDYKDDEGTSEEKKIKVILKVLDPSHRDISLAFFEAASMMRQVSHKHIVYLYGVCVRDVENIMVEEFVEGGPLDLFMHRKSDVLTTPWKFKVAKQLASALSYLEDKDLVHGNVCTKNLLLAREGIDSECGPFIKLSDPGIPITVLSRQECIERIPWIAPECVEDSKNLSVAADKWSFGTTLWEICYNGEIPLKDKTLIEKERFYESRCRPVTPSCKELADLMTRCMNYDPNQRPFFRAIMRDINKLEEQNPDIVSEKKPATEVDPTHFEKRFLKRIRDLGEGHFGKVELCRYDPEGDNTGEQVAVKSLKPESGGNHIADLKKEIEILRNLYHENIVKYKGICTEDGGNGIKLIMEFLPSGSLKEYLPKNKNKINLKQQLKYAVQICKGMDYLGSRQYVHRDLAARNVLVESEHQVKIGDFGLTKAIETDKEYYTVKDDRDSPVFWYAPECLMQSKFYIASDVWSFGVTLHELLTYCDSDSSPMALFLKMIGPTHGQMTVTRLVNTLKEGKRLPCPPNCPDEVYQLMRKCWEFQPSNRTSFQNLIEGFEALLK

`N#CC[C@H]1CC[C@H](n2c(C(=O)NCC3CC3)nc3cnc4[nH]ccc4c32)CC1` [Ex. 174, 1-((1r,4r)-4-(cyanomethyl)cyclohexyl)-N-(cyclopropylmethyl)-1,6-dihydroimidazo[4,5-d]pyrrolo[2,3-b]pyridine-2-carboxamide]: the pIC50 in experiment [1] was 6.22; in experiment [2] it was 7.24; in experiment [3] it was 8.66; in experiment [4] it was 7.26.

`N#CC[C@H]1CC[C@H](n2c(C(=O)NC3CC3)nc3cnc4[nH]ccc4c32)CC1` [Ex. 175, 1-((1r,4r)-4-(Cyanomethyl)cyclohexyl)-N-cyclopropyl-1,6-dihydroimidazo[4,5-d]pyrrolo[2,3-b]pyridine-2-carboxamide]: the pIC50 in experiment [1] was 6.08; in experiment [2], 7.56; in experiment [3] it was 8.60; in experiment [4] it was 7.31.

With `COC1CCN(C(=O)c2nc3cnc4[nH]ccc4c3n2[C@H]2CC[C@H](CC#N)CC2)CC1` [Ex. 176, 2-((1r,4r)-4-(2-(4-Methoxypiperidine-1-carbonyl)imidazo[4,5-d]pyrrolo[2,3-b]pyridin-1(6H)-yl)cyclohexyl)acetonitrile], the pIC50 in experiment [1] was 5.49; in experiment [2], 6.80; in experiment [3], 8.59; in experiment [4] it was 6.89.

Take `N#CC[C@H]1CC[C@H](n2c(C(=O)N3CCC(C#N)CC3)nc3cnc4[nH]ccc4c32)CC1` [Ex. 177, 1-(1-((1r,4r)-4-(Cyanomethyl)cyclohexyl)-1,6-dihydroimidazo[4,5-d]pyrrolo[2,3-b]pyridine-2-carbonyl)piperidine-4-carbonitrile]: the pIC50 in experiment [1] was 5.62; in experiment [2] it was 6.79; in experiment [3], 8.57; in experiment [4], 6.99.

As to `N#CC[C@H]1CC[C@H](n2c(C(=O)NC3CCOCC3)nc3cnc4[nH]ccc4c32)CC1` [Ex. 178, 1-((1r,4r)-4-(Cyanomethyl)cyclohexyl)-N-(tetrahydro-2H-pyran-4-yl)-1,6-dihydroimidazo[4,5-d]pyrrolo[2,3-b]pyridine-2-carboxamide], the pIC50 in experiment [1] was 5.88; in experiment [2], 7.22; in experiment [3], 8.51; in experiment [4], 7.37.

With `COCC(C)NC(=O)c1nc2cnc3[nH]ccc3c2n1[C@H]1CC[C@H](CC#N)CC1` (stereo partly drawn) [Ex. 179, 1-((1r,4r)-4-(Cyanomethyl)cyclohexyl)-N-(1-methoxypropan-2-yl)-1,6-dihydroimidazo[4,5-d]pyrrolo[2,3-b]pyridine-2-carboxamide], the pIC50 in experiment [1] was 6.19; in experiment [2] it was 7.68; in experiment [3], 8.85; in experiment [4], 7.52.

As to `N#CC[C@H]1CC[C@H](n2c(C(=O)N3CCOCC3)nc3cnc4[nH]ccc4c32)CC1` [Ex. 180, 2-((1r,4r)-4-(2-(Morpholine-4-carbonyl)imidazo[4,5-d]pyrrolo[2,3-b]pyridin-1(6H)-yl)cyclohexyl)acetonitrile], the pIC50 in experiment [1] is 5.64; in experiment [2], 6.83; in experiment [3], 8.47; in experiment [4], 6.89.

Consider `N#CC[C@H]1CC[C@H](n2c(C(=O)N3CCC(O)CC3)nc3cnc4[nH]ccc4c32)CC1` [Ex. 181, 2-((1r,4r)-4-(2-(4-Hydroxypiperidine-1-carbonyl)imidazo[4,5-d]pyrrolo[2,3-b]pyridin-1(6H)-yl)cyclohexyl)acetonitrile], for which the negative-log IC50 (pIC50) in experiment [1] is 5.20; in experiment [2], 6.48; in experiment [3] it was 8.27; in experiment [4], 6.80.

As to `CCOC(=O)Cn1cc(-c2nc3cnc4[nH]ccc4c3n2[C@H]2CC[C@H](CC#N)CC2)cn1` [Ex. 182, Ethyl 2-(4-(1-((1r,4r)-4-(cyanomethyl)cyclohexyl)-1,6-dihydroimidazo[4,5-d]pyrrolo[2,3-b]pyridin-2-yl)-1H-pyrazol-1-yl)acetate], the pIC50 in experiment [1] is 6.56; in experiment [2], 7.61; in experiment [3] it was 8.55; in experiment [4], 7.28.

As for `Cc1nc(C)c(-c2nc3cnc4[nH]ccc4c3n2[C@H]2CC[C@H](CC#N)CC2)o1` [Ex. 183, 2-((1r,4r)-4-(2-(2,4-dimethyloxazol-5-yl)imidazo[4,5-d]pyrrolo[2,3-b]pyridin-1(6H)-yl)cyclohexyl)acetonitrile], the pIC50 in experiment [1] was 6.19; in experiment [2] it was 7.28; in experiment [3], 8.37; in experiment [4], 6.93.

Regarding `Cc1nc(C)c(-c2nc3cnc4[nH]ccc4c3n2[C@H]2CC[C@H](CC#N)CC2)s1` [Ex. 184, 2-((1r,4r)-4-(2-(2,4-dimethylthiazol-5-yl)imidazo[4,5-d]pyrrolo[2,3-b]pyridin-1(6H)-yl)cyclohexyl)acetonitrile], the negative-log IC50 (pIC50) in experiment [1] is 5.91; in experiment [2] it was 6.64; in experiment [3], 7.59; in experiment [4], 6.50.

Take `N#CC[C@H]1CC[C@H](n2c(-c3cnn(CC(=O)NC4CC4)c3)nc3cnc4[nH]ccc4c32)CC1` [Ex. 185, 2-(4-(1-((1r,4r)-4-(Cyanomethyl)cyclohexyl)-1,6-dihydroimidazo[4,5-d]pyrrolo[2,3-b]pyridin-2-yl)-1H-pyrazol-1-yl)-N-cyclopropylacetamide]: the pIC50 in experiment [1] is 6.83; in experiment [2], 7.70; in experiment [3], 8.68; in experiment [4] it was 7.44.

With `N#CC[C@H]1CC[C@H](n2c(-c3cccnc3N)nc3cnc4[nH]ccc4c32)CC1` [Ex. 186, 2-((1r,4r)-4-(2-(2-aminopyridin-3-yl)imidazo[4,5-d]pyrrolo[2,3-b]pyridin-1(6H)-yl)cyclohexyl)acetonitrile], the pIC50 is 5.33 in experiment [1], 7.09 in experiment [2], 8.43 in experiment [3] and 6.60 in experiment [4].

Consider `CC(C)(O)Cn1cc(-c2nc3cnc4[nH]ccc4c3n2[C@H]2CC[C@H](CC#N)CC2)cn1` [Ex. 187, 2-((1r,4r)-4-(2-(1-(2-Hydroxy-2-methylpropyl)-1H-pyrazol-4-yl)imidazo[4,5-d]pyrrolo[2,3-b]pyridin-1(6H)-yl)cyclohexyl)acetonitrile], for which the pIC50 in experiment [1] was 6.74; in experiment [2], 7.61; in experiment [3] it was 8.89; in experiment [4] it was 7.22.

In the case of `CC(C)(O)CNC(=O)Cc1nc2cnc3[nH]cc(Cl)c3c2n1[C@H]1CC[C@H](CC#N)CC1` [Ex. 188, 2-(8-chloro-1-((1r,4r)-4-(cyanomethyl)cyclohexyl)-1,6-dihydroimidazo[4,5-d]pyrrolo[2,3-b]pyridin-2-yl)-N-(2-hydroxy-2-methylpropyl)acetamide], the pIC50 in experiment [1] was 7.88; in experiment [2], 7.44; in experiment [3], 8.49; in experiment [4], 6.91.

Consider `CC(C)(O)CNC(=O)Cc1nc2cnc3[nH]cc(Br)c3c2n1[C@H]1CC[C@H](CC#N)CC1` [Ex. 189, 2-(8-bromo-1-((1r,4r)-4-(cyanomethyl)cyclohexyl)-1,6-dihydroimidazo[4,5-d]pyrrolo[2,3-b]pyridin-2-yl)-N-(2-hydroxy-2-methylpropyl)acetamide], for which the pIC50 in experiment [1] is 7.78; in experiment [2], 7.37; in experiment [3], 8.47; in experiment [4] it was 6.74.

On to `Cc1c[nH]c2ncc3nc(CC(=O)NCC(C)(C)O)n([C@H]4CC[C@H](CC#N)CC4)c3c12` [Ex. 190, 2-(1-((1r,4r)-4-(cyanomethyl)cyclohexyl)-8-methyl-1,6-dihydroimidazo[4,5-d]pyrrolo[2,3-b]pyridin-2-yl)-N-(2-hydroxy-2-methylpropyl)acetamide], for which the pIC50 was 6.99 in experiment [1], 6.83 in experiment [2], 7.91 in experiment [3] and 6.34 in experiment [4].

For `Cc1cc2c(ncc3nc(CC(=O)NCC(C)(C)O)n([C@H]4CC[C@H](CC#N)CC4)c32)[nH]1` [Ex. 191, 2-(1-((1r,4r)-4-(Cyanomethyl)cyclohexyl)-7-methyl-1,6-dihydroimidazo[4,5-d]pyrrolo[2,3-b]pyridin-2-yl)-N-(2-hydroxy-2-methylpropyl)acetamide], the negative-log IC50 (pIC50) in experiment [1] was 5.87; in experiment [2] it was 7.24; in experiment [3] it was 8.89; in experiment [4], 7.69.

As for `COCCOCCOCCOCCc1nc2cnc3[nH]ccc3c2n1[C@H]1CC[C@H](CC#N)CC1` [Ex. 192, 2-((1r,4r)-4-(2-(2,5,8,11-Tetraoxatridecan-13-yl)imidazo[4,5-d]pyrrolo[2,3-b]pyridin-1(6H)-yl)cyclohexyl)acetonitrile], the pIC50 is 5.95 in experiment [1], 7.16 in experiment [2], 9.00 in experiment [3] and 7.59 in experiment [4].

On to `N#CC[C@H]1CC[C@H](n2c(CC(=O)NCCOCCOCCN)nc3cnc4[nH]ccc4c32)CC1` [Ex. 193, N-(2-(2-(2-Aminoethoxy)ethoxy)ethyl)-2-(1-((1r,4r)-4-(cyanomethyl)cyclohexyl)-1,6-dihydroimidazo[4,5-d]pyrrolo[2,3-b]pyridin-2-yl)acetamide], for which the pIC50 is 7.16 in experiment [1], 8.00 in experiment [2], 9.70 in experiment [3] and 8.28 in experiment [4].

Take `COCCOCCOCc1nc2cnc3[nH]ccc3c2n1[C@H]1CC[C@H](CC#N)CC1` [Ex. 194, 2-((1r,4r)-4-(2-((2-(2-methoxyethoxy)ethoxy)methyl)imidazo[4,5-d]pyrrolo[2,3-b]pyridin-1(6H)-yl)cyclohexyl)acetonitrile]: the pIC50 in experiment [1] is 5.83; in experiment [2] it was 6.88; in experiment [3], 8.03; in experiment [4], 7.14.
